# Target: T1, human 5-HT3 receptor (Homo sapiens, UniProt P46098)
# T1 construct: purchased BIOLINKS K.K; host or cells: HEK-293 cells (membrane preparation)
# T1 sequence (P46098 24-478): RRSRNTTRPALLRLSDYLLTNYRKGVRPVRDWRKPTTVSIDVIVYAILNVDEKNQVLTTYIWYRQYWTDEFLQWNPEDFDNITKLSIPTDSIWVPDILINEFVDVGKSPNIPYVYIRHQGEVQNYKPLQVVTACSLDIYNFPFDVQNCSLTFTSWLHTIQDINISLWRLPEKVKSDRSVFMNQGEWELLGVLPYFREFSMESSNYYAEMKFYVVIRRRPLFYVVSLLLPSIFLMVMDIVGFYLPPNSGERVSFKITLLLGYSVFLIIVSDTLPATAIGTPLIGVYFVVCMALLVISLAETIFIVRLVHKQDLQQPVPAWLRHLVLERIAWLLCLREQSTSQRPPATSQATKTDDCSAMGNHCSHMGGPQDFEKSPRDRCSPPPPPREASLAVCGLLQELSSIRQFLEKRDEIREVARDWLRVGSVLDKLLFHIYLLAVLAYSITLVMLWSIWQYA
# Assay: Measurement of affinity to human 5-HT3 receptor (in vitro), [3H]BRL-43694 binding
# Conditions: test compound 100 nmols/L; [3H]BRL-43694 0.5 nmols/L; HEK-293 cell membrane expressing human 5-HT3 receptor; read-out: Percent Inhibition (%) on Each Receptor's Binding at 10^−7M, 5-HT3
# Summary of the method: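 Membranes from HEK-293 cells expressing the receptor were incubated with 0.5 nmol/L radioligand and compound for 60 min at 25 °C in Tris/MgCl2/EDTA buffer, pH 7.5. Bound radioactivity was collected by filtration and counted. Percent inhibition was corrected for non-specific binding defined with 10 μmol/L tropisetron; compounds were tested at 100 nmol/L.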
row,SMILES,inhibition at 0.1 µM [%]
1,"Clc1ccc2ccnc(N3CCNCC3)c2c1 [Production Example 49, 7-chloro-1-piperazin-1-ylisoquinoline]",96.3
2,"Nn1c(CCCCN2CCN(c3ccc4ccccc4n3)CC2)nc2cccc(Cl)c2c1=O [Example 4-25, 3-amino-5-chloro-2-[4-(4-quinolin-2-ylpiperazin-1-yl)butyl]-3H-quinazolin-4-one]",43.3
3,"c1cc2ccsc2c(N2CCN3CCC[C@H]3C2)n1 [Production Example 103, 7-((8aS)-octahydropyrrolo[1,2-a]pyrazin-2-yl)thieno[2,3-c]pyridine]",99.5
4,"COc1ccc2ccnc(N3CCN4CCC[C@H]4C3)c2c1 [Production Example 72, 1-((8aS)-octahydropyrrolo[1,2-a]pyrazin-2-yl)-7-methoxyisoquinoline]",99.8
5,"COc1ccc2ccnc(N3CCNC(C)C3)c2c1 (stereo not shown) [Production Example 38, 7-methoxy-1-(3-methylpiperazin-1-yl)isoquinoline]",93.1
6,"CCn1c(CCCCN2CCN(c3cc(C)c4ccccc4n3)CC2)nc2c(c1=O)CCCC2 [Example 7-7, 3-ethyl-2-[4-[4-(4-methylquinolin-2-yl)piperazin-1-yl]butyl]-5,6,7,8-tetrahydro-3H-quinazolin-4-one]",95
7,"Clc1ccc2ccnc(N3CCN4CCC[C@H]4C3)c2c1 [Production Example 73, 7-chloro-1-((8aS)-octahydropyrrolo[1,2-a]pyrazin-2-yl)isoquinoline]",99.3
8,"Cc1ccc2ccnc(N3CCN(C)CC3)c2c1 [Production Example 47, 7-methyl-1-(4-methylpiperazin-1-yl)isoquinoline]",93.6
9,"Nn1c(CCCCN2CCN(c3ccc4ccccc4n3)CC2)nc2ccccc2c1=O [Example 4-3, 3-amino-2-[4-(4-quinolin-2-ylpiperazin-1-yl)butyl]-3H-quinazolin-4-one]",83.6
10,"Nn1c(CCCCN2CCN(c3ccc4ccccc4n3)CC2)nc2ccsc2c1=O [Example 4-18, 3-amino-2-[4-(4-quinolin-2-ylpiperazin-1-yl)butyl]-3H-thieno[3,2-d]-pyrimidin-4-one]",50.9
11,"CN1CCN(c2nccc3ccsc23)CC1 [Production Example 6, 7-(4-methylpiperazin-1-yl)thieno[2,3-c]pyridine]",97.5
12,"Cn1c(CCCCN2CCN(c3ccc4ccccc4n3)CC2)nc2ccccc2c1=O [Example 7-20, 3-methyl-2-[4-(4-quinolin-2-ylpiperazin-1-yl)butyl]-3H-quinazolin-4-one]",92.9
13,"c1cc2sccc2c(N2CCN3CCC[C@H]3C2)n1 [Production Example 104, 4-((8aS)-octahydropyrrolo[1,2-a]pyrazin-2-yl)thieno[3,2-c]pyridine]",99.3
14,"Nn1c(CCCCN2CCN(c3ccc4ccccc4n3)CC2)nc2c(c1=O)CCCC2 [Example 4-1, 3-amino-2-[4-(4-quinolin-2-ylpiperazin-1-yl)butyl]-5,6,7,8-tetrahydro-3H-quinazolin-4-one]",81.2
15,"c1cc2ccsc2c(N2CCN3CCC[C@@H]3C2)n1 [Production Example 108, 7-((8aR)-octahydropyrrolo[1,2-a]pyrazin-2-yl)thieno[2,3-c]pyridine]",100
16,"Cc1cc(N2CCN(CCCCc3nc4ccccc4c(=O)n3N)CC2)nc2ccccc12 [Example 4-4, 3-amino-2-[4-[4-(4-methylquinolin-2-yl)piperazin-1-yl]butyl]-3H-quinazolin-4-one]",78.6
17,"c1cc2ccoc2c(N2CCN3CCC[C@H]3C2)n1 [Production Example 102, 7-((8aS)-octahydropyrrolo[1,2-a]pyrazin-2-yl)furo[2,3-c]-pyridine]",98.9
18,"CCn1c(CCCCN2CCN(c3ccc4ccccc4n3)CC2)nc2c(c1=O)CCCC2 [Example 7-2, 3-2-[4-(4-quinolin-2-ylpiperazin-1-yl)butyl]-5,6,7,8-tetrahydro-3H-quinazolin-4-one]",94.5
19,"Cn1c(CCCCN2CCN(c3ccc4ccccc4n3)CC2)nc2c(c1=O)CCCC2 [Example 7-1, 3-methyl-2-[4-(4-quinolin-2-ylpiperazin-1-yl)butyl]-5,6,7,8-tetrahydro-3H-quinazolin-4-one]",94.2
20,"Cc1cc2c(N3CCN4CCC[C@H]4C3)nccc2s1 [Production Example 107, 4-((8aS)-octahydropyrrolo[1,2-a]pyrazin-2-yl)-2-methylthieno[3,2-c]-pyridine]",95.9
21,"Cc1cc(N2CCN(CCCCc3nc4c(c(=O)n3C)CCCC4)CC2)nc2ccccc12 [Example 7-6, 3-methyl-2-[4-[4-(4-methylquinolin-2-yl)piperazin-1-yl]butyl]-5,6,7,8-tetrahydro-3H-quinazolin-4-one]",93.8
22,"CN1CCN(c2nccc3sccc23)CC1 [Production Example 8, 4-(4-methylpiperazin-1-yl)thieno[3,2-c]pyridine]",93.3
